Experimental data taken from PubChem BioAssay (NCI).
Several values for one entry are separate records, joined by “and”; a condition that tells them apart may be missing. Equal entries are not always repeated.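 How tested: cells in 96-well plates exposed to compound for 48 hours at five concentrations. GI50: concentration for 50% inhibition of growth. The concentration for full growth arrest is given as TGI.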

What was measured:
Assay in all cases: DTP human tumour cell line panel, 48 h
BT-549 breast = tested on: BT-549 breast
COLO 205 colon = tested on: COLO 205 colon
HCT-116 colon = tested on: HCT-116 colon
HOP-62 NSCLC = tested on: HOP-62 NSCLC
HS 578T breast = tested on: HS 578T breast
NCI-H226 lung = tested on: NCI-H226 lung
OVCAR-3 ovarian = tested on: OVCAR-3 ovarian
OVCAR-8 ovarian = tested on: OVCAR-8 ovarian
SK-OV-3 ovarian = tested on: SK-OV-3 ovarian
UO-31 renal = tested on: UO-31 renal

Q: Which results are given for `O=[N+]([O-])c1ccc2c(c1)C(c1ccccc1Cl)=Nc1cn[nH]c1N2`?
A: GI50 (BT-549 breast): 16.2 µM; TGI (BT-549 breast): > 25 µM; GI50 (COLO 205 colon): 9.43 µM; TGI (COLO 205 colon): > 25 µM; GI50 (HCT-116 colon): 11.2 µM; TGI (HCT-116 colon): > 25 µM; GI50 (HOP-62 NSCLC): > 20.7 µM; TGI (HOP-62 NSCLC): > 25 µM; GI50 (HS 578T breast): 7.76 µM; TGI (HS 578T breast): > 25 µM; GI50 (NCI-H226 lung): 11.8 µM; TGI (NCI-H226 lung): > 25 µM; GI50 (OVCAR-3 ovarian): 14.1 µM; TGI (OVCAR-3 ovarian): > 25 µM; GI50 (OVCAR-8 ovarian): 17.9 µM; TGI (OVCAR-8 ovarian): > 25 µM; GI50 (SK-OV-3 ovarian): 12.5 µM; TGI (SK-OV-3 ovarian): > 25 µM; GI50 (UO-31 renal): 11.1 µM; TGI (UO-31 renal): > 25 µM

Q: What does the source list for `COc1cccc(/C(COc2ccc3c(c2)oc(=O)c2cc(OC)ccc23)=N/O)c1`?
A: GI50 (BT-549 breast): 11.7 µM; TGI (BT-549 breast): > 100 µM; GI50 (COLO 205 colon): 4.25 µM; TGI (COLO 205 colon): > 100 µM; GI50 (HCT-116 colon): 4.27 µM; TGI (HCT-116 colon): > 100 µM; GI50 (HOP-62 NSCLC): 6.9 µM; TGI (HOP-62 NSCLC): > 100 µM; GI50 (HS 578T breast): 14.5 µM; TGI (HS 578T breast): > 100 µM; GI50 (NCI-H226 lung): 51.9 µM; TGI (NCI-H226 lung): > 100 µM; GI50 (OVCAR-3 ovarian): 4.18 µM; TGI (OVCAR-3 ovarian): > 100 µM; GI50 (OVCAR-8 ovarian): 9.77 µM; TGI (OVCAR-8 ovarian): > 100 µM; GI50 (SK-OV-3 ovarian): 66.1 µM; TGI (SK-OV-3 ovarian): > 100 µM; GI50 (UO-31 renal): 7.11 µM; TGI (UO-31 renal): 75.6 µM

Q: Which results are given for `Cc1cc[c-]cc1.Fc1c[c-]c(-c2ccccn2)c(F)c1.[Pt+2].c1ccc(P(C[PH+](c2ccccc2)c2ccccc2)c2ccccc2)cc1`?
A: GI50 (BT-549 breast): 2.62 µM; TGI (BT-549 breast): 12.2 µM; GI50 (COLO 205 colon): 1.84 µM; TGI (COLO 205 colon): 3.76 µM; GI50 (HCT-116 colon): 2.65 µM; TGI (HCT-116 colon): 11.2 µM; GI50 (HOP-62 NSCLC): 2.84 µM; TGI (HOP-62 NSCLC): 10.7 µM; GI50 (HS 578T breast): 2.61 µM; TGI (HS 578T breast): 9.94 µM; GI50 (NCI-H226 lung): 2.93 µM; TGI (NCI-H226 lung): 11.6 µM; GI50 (OVCAR-3 ovarian): 1.72 µM; TGI (OVCAR-3 ovarian): 10.6 µM; GI50 (OVCAR-8 ovarian): 2.68 µM; TGI (OVCAR-8 ovarian): 15.4 µM; GI50 (SK-OV-3 ovarian): 2.77 µM; TGI (SK-OV-3 ovarian): 7.79 µM; GI50 (UO-31 renal): 2.13 µM; TGI (UO-31 renal): 7.53 µM

Q: What does the source list for `NC(N)=NCCCCCNc1noc(Cc2c[nH]c3cc(Br)ccc23)n1`?
A: GI50 (BT-549 breast): 3.35 µM; TGI (BT-549 breast): 14.9 µM; GI50 (COLO 205 colon): 9.77 µM; TGI (COLO 205 colon): 28.2 µM; GI50 (HCT-116 colon): 9.78 µM; TGI (HCT-116 colon): 37 µM; GI50 (HOP-62 NSCLC): 5.84 µM; TGI (HOP-62 NSCLC): 28.4 µM; GI50 (HS 578T breast): 9.08 µM; TGI (HS 578T breast): 90.2 µM; GI50 (NCI-H226 lung): 13.6 µM; TGI (NCI-H226 lung): 46.9 µM; GI50 (OVCAR-3 ovarian): 4.4 µM; TGI (OVCAR-3 ovarian): 33.5 µM; GI50 (OVCAR-8 ovarian): 10.4 µM; TGI (OVCAR-8 ovarian): > 100 µM; GI50 (SK-OV-3 ovarian): 24 µM; TGI (SK-OV-3 ovarian): > 100 µM; GI50 (UO-31 renal): 20.2 µM; TGI (UO-31 renal): > 100 µM

Q: `COc1cc2c(c(OC)n1)[C@]1(O)[C@H](O)[C@H](CN(C)C)[C@@H](c3ccccc3)[C@]1(c1ccc(C#N)cc1)O2` was tested. Which GI50 (BT-549 breast) did it give?
A: 0.0451 µM and 0.0737 µM

Q: And the TGI (BT-549 breast)?
A: 0.825 µM and 2.62 µM

Q: What about the GI50 (COLO 205 colon) of the same compound?
A: 0.0114 µM and < 0.0111 µM

Q: And the TGI (COLO 205 colon)?
A: 0.0442 µM and 0.0572 µM

Q: And the GI50 (HCT-116 colon)?
A: < 0.01 µM

Q: And the TGI (HCT-116 colon)?
A: 2.65 µM and 1.7 µM

Q: And the GI50 (HOP-62 NSCLC)?
A: < 0.0151 µM and 0.0102 µM

Q: And the TGI (HOP-62 NSCLC)?
A: 3.52 µM and 0.565 µM

Q: What about the GI50 (HS 578T breast) of the same compound?
A: 0.0402 µM and 0.0367 µM

Q: What about the TGI (HS 578T breast) of the same compound?
A: 1.97 µM and 1.16 µM

Q: What about the GI50 (NCI-H226 lung) of the same compound?
A: 0.0254 µM and < 0.0131 µM

Q: What about the TGI (NCI-H226 lung) of the same compound?
A: 4.34 µM and 1.28 µM

Q: And the GI50 (OVCAR-3 ovarian)?
A: 0.0334 µM and 0.0146 µM

Q: And the TGI (OVCAR-3 ovarian)?
A: 2.78 µM and 1.87 µM

Q: And the GI50 (OVCAR-8 ovarian)?
A: 0.0292 µM and 0.0316 µM

Q: What about the TGI (OVCAR-8 ovarian) of the same compound?
A: 10.1 µM and 11.5 µM

Q: And the GI50 (SK-OV-3 ovarian)?
A: 0.0481 µM and 0.0284 µM

Q: What about the TGI (SK-OV-3 ovarian) of the same compound?
A: 7.95 µM and 2.1 µM

Q: And the GI50 (UO-31 renal)?
A: 0.0224 µM and 0.0197 µM

Q: What about the TGI (UO-31 renal) of the same compound?
A: 0.479 µM and 0.319 µM

Q: How did the GI50 (BT-549 breast) turn out when `COc1ccc2c(c1)C(C)Cc1c(ncnc1-n1c(C)nc3ccccc31)N2C` (stereo unspecified) was run?
A: 5.82 µM

Q: And the TGI (BT-549 breast)?
A: 30.6 µM

Q: And the GI50 (COLO 205 colon)?
A: 2.76 µM

Q: And the TGI (COLO 205 colon)?
A: 11.1 µM

Q: What about the GI50 (HCT-116 colon) of the same compound?
A: 3.46 µM

Q: And the TGI (HCT-116 colon)?
A: 16.2 µM

Q: And the GI50 (HOP-62 NSCLC)?
A: 4.23 µM

Q: What about the TGI (HOP-62 NSCLC) of the same compound?
A: 24.6 µM

Q: What about the GI50 (HS 578T breast) of the same compound?
A: 4.12 µM

Q: What about the TGI (HS 578T breast) of the same compound?
A: 25.3 µM

Q: And the GI50 (NCI-H226 lung)?
A: 11.5 µM

Q: What about the TGI (NCI-H226 lung) of the same compound?
A: 36.1 µM

Q: And the GI50 (OVCAR-3 ovarian)?
A: 2.53 µM

Q: And the TGI (OVCAR-3 ovarian)?
A: 8.79 µM

Q: And the GI50 (OVCAR-8 ovarian)?
A: 4.83 µM

Q: What about the TGI (OVCAR-8 ovarian) of the same compound?
A: 40.1 µM

Q: What about the GI50 (SK-OV-3 ovarian) of the same compound?
A: 3.53 µM

Q: And the TGI (SK-OV-3 ovarian)?
A: 18.5 µM

Q: What about the GI50 (UO-31 renal) of the same compound?
A: 4.59 µM

Q: What about the TGI (UO-31 renal) of the same compound?
A: 20.7 µM

Q: Which results are given for `Cn1cc(C2=C(c3cn(CCCCCN)c4ccccc34)C(=O)NC2=O)c2ccccc21`?
A: GI50 (BT-549 breast): 8.62 µM; TGI (BT-549 breast): 24.3 µM; GI50 (COLO 205 colon): 6.06 µM; TGI (COLO 205 colon): > 21 µM; GI50 (HCT-116 colon): 5.85 µM; TGI (HCT-116 colon): > 16.7 µM; GI50 (HOP-62 NSCLC): 15.2 µM; TGI (HOP-62 NSCLC): > 25 µM; GI50 (HS 578T breast): 11.5 µM; TGI (HS 578T breast): > 25 µM; GI50 (NCI-H226 lung): > 25 µM; TGI (NCI-H226 lung): > 25 µM; GI50 (OVCAR-3 ovarian): 7.8 µM; TGI (OVCAR-3 ovarian): > 23.2 µM; GI50 (OVCAR-8 ovarian): 11 µM; TGI (OVCAR-8 ovarian): > 25 µM; GI50 (SK-OV-3 ovarian): 10.9 µM; TGI (SK-OV-3 ovarian): > 25 µM; GI50 (UO-31 renal): 5.52 µM; TGI (UO-31 renal): > 25 µM

Q: `C[C@]12CC[C@H](O)C[C@H]1CC[C@@H]1[C@@H]2CC[C@]2(C)[C@@H](C3=CC(=O)OC3)CC[C@]12O` was tested. Which TGI (BT-549 breast) did it give?
A: 0.134 µM

Q: What about the TGI (COLO 205 colon) of the same compound?
A: 2.32 µM

Q: And the TGI (HCT-116 colon)?
A: 0.0663 µM

Q: And the GI50 (HOP-62 NSCLC)?
A: 0.0313 µM

Q: What about the TGI (HOP-62 NSCLC) of the same compound?
A: 0.169 µM

Q: And the TGI (HS 578T breast)?
A: > 100 µM

Q: And the TGI (NCI-H226 lung)?
A: 2.83 µM

Q: What about the TGI (OVCAR-3 ovarian) of the same compound?
A: 0.204 µM

Q: What about the TGI (OVCAR-8 ovarian) of the same compound?
A: 1.07 µM

Q: What about the TGI (SK-OV-3 ovarian) of the same compound?
A: 0.818 µM

Q: What about the TGI (UO-31 renal) of the same compound?
A: 4.07 µM

Q: Which TGI (BT-549 breast) does the source give for `COc1ccc2c(c1)[C@@]13CCCC[C@H]1[C@@H](C2)N(C)CC3=O` here?
A: 31.4 µM

Q: And the TGI (COLO 205 colon)?
A: 31.2 µM

Q: And the TGI (HCT-116 colon)?
A: 29.7 µM

Q: What about the TGI (HOP-62 NSCLC) of the same compound?
A: > 100 µM

Q: And the TGI (HS 578T breast)?
A: 66.6 µM

Q: And the TGI (NCI-H226 lung)?
A: 57.9 µM

Q: What about the TGI (OVCAR-3 ovarian) of the same compound?
A: 32.9 µM

Q: And the TGI (OVCAR-8 ovarian)?
A: 42.1 µM

Q: And the TGI (SK-OV-3 ovarian)?
A: 53.9 µM

Q: And the TGI (UO-31 renal)?
A: 32.9 µM
